# Measured values taken from US20090017103A1, “Antisense oligonucleotides for prevention of metastasis formation of cancer cells” (priority 2003, published 2009).
# Where “and” joins values, the source holds several entries; their conditions need not be identical. Identical values can stand only once.
# Legend:
# [1] = system: MDA-MB-231^GFP cells; assay: In vivo treatment with mini-osmotic pumps (osteolytic bone metastasis model);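 as to Mean size of lesion: mean lesion size in relative units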;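 as to Size of lesion (per animal): lesion size in relative units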; set-up: species or system nude rats; details: for X-ray scan of hind legs: lytic lesions (in words): FIG. 5-7; for T/C × 100: mean lesion size vs NSO control rats; for Mean size of lesion / Size of lesion (per animal): mini-osmotic pumps; for Incidence of metastasis: mini-osmotic pumps s.c., 7 mg/kg daily over four weeks
# [2] = system: bone sialoprotein II; assay: Western blot of bone sialoprotein II expression after exposure to ASOs; assay type: cell-based, human; details: 10 μM
# [3] = system: osteonectin; assay: Western blot of osteonectin expression after exposure to ASOs; assay type: cell-based, human; details: single exposure, lipofectamine, 10 μM
# [4] = system: MDA-MB-231^GFP cells; assay: In vivo model with pretreated MDA-MB-231^GFP cells (osteolytic bone metastasis); set-up: species or system nude rats; lesion size of the rat(s) that developed lytic metastasis, % of control / lesion sizes with respect to all animals of the group compared to untreated control / lesion size of individual animal compared to the untreated control / T/C % (mean lesion size compared to untreated control): concentration or dose not given beside the values; details: for T/C × 100: mean lesion size vs untreated control rats; for Incidence of metastasis: cells pretreated in vitro (10 μM);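 as to Mean size of lesion: mean lesion size in relative units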
# [5] = system: osteopontin; assay: Western blot of osteopontin expression after exposure to ASOs; assay type: cell-based, human; details: MDA-MB231, lipofectamine, 10 μM
# [6] = system: MDA-MB-231 breast cancer cells; assay: Clonogenicity assay (colony formation); assay type: cell-based, human; details: 20 μM
# Experimental: For determining the response of MDA-MB-231 colony formation to exposure with antisense oligonucleotides and erucylphospho-NNN-trimethylpropanolamine (ErPC3) the following procedure was used. MDA-MB-231 cells were treated for various periods of time (see below), harvested and counted. Cells (5000) were then transferred into semi-solid medium containing 0.8t RPMI-methylcellulose and 30% FBS. Cells were plated onto 3.5 cm Petri-dishes (1 ml/dish) (NUNC, Wiesbaden, Germany) and usual cell culture conditions (37° C., 5% CO2 in humidified air) were applied. Colony formation (clusters of 30 or more cells) was visualized by staining with 3-[4,5-dimethylthiazol-2-yl]-2,5-diphenyltetrazolium-bromide (MTT; Serva, Heidelberg, Germany) and the resulting dark blue colonies were scored by an inverted microscope after 5-7 days. At least three dishes per treatment protocol were used.
# Pending on the duration of treatment, 1×10^5-3×10^5 cells were transferred onto 6 well plates (Nunc, Wiesbaden, Germany) and grown for 24 h. For transfection, ASO stock solutions were prepared in medium without FBS. According to the protocol of the manufacturer, the respective ASO stock solution was mixed with lipofectamine to allow ASO-liposome complexes to form. To 200 μl medium containing ASO quantities resulting in 10 μM (Western blot and in vivo model) and in 5, 10, or 20 μM (clonogenicity assay) final ASO-concentrations, an equal volume of medium without FBS was added containing 5, 10, or 20 μl lipofectamine, respectively. In addition to the ASO treatment, a NSO control (20 μM final concentration with 20 μl lipofectamine) and a lipofectamine control (20 μl) were used. […] After 12 h the medium was changed, and cells were further grown for 48-72 h. In the case of a sequential combination treatment this first cycle was repeated with the respective combination partner.
# The alkylphosphocholine ErPC3 was synthesized and provided by Prof. H. Eibl (MPI of Biophysical Chemistry, Göttingen, FRG). For treating MDA-MB-231 cells, ErPC3 which was kept as stock solution in ethanol and PBS (10 mM; ratio of diluents 1:1; V:V), was diluted in PBS resulting in final concentrations of 10, 14, and 20 μM. The medium containing ErPC3 was changed after 24 h in all experiments and the cells were further grown for 48-72 h without ErPC3 (for details of sequential exposure see below).
# Sequential combination treatment consisted of two or three treatment cycles. The two cycle treatment started either with the ASO and was followed by ErPC3 or was performed with the reverse sequence. The three cycle treatment started either with two cycles of ASO followed by ErPC3 or an initial exposure to ErPC3 was followed by two cycles with an ASO.
# Colony counts are presented as mean with corresponding standard deviation. For comparison of incidences between treatment groups the x^2 test was used and for comparison of the lesion sizes the Kruskal-Wallis test was applied. P values≦0.05 were considered significant. Predicted theoretical values of combinations were calculated according to the equation: C=a×b/100, where a and b are colony counts in percent of untreated control obtained in response to single agents. For each concentration applied theoretical values were calculated and compared with the real value of the combination. In addition, isobologram and multiple drug effect analysis was examined by a suitable program (CalcuSyn, Biosoft, Ferguson, USA) to study the nature of the interaction observed. For this purpose, the dose-effect curve for each drug alone was determined based on the experimental observations using the median-effect principle; the combination index (CI) for each combination was then calculated according to the following equation:
# CI=(D)1/(Dx)1+(D)2/(Dx)2+(D1)×(D2)/(Dx)1×(Dx)2
# where (D)1 and (D)2 are the doses of drug 1 and drug 2 that have x effect when used in combination and (Dx)1 and (Dx)2 are the doses of drug 1 and drug 2 that have the same x effect when used alone. […]
substance,measurement,setting,value
"5′-GCGAGGGAGTTCTTCTTCTA-3′ (GCGAGGGAGTTCTTCTTCTA; phosphorothioate backbone, further chemistry not given here) [NSO, reference compound]",X-ray scan of hind legs: lytic lesions (in words),[1]; eight weeks after tumor cell implantation,clear increase of lytic lesions in the tibia and fibula
same,X-ray scan of hind legs: lytic lesions (in words),"[1]; four weeks after tumor cell implantation, therapy from implantation",small lytic lesions in the tibia
same,X-ray scan of hind legs: lytic lesions (in words),[1]; six weeks after tumor cell implantation,visible lytic lesions in the tibia and fibula
same,X-ray scan of hind legs: lytic lesions (in words),[1]; ten weeks after tumor cell implantation,lytic metastases with clear deterioration are visible in all regions of the right hind leg
same,T/C × 100,[1]; week 4,100
same,Mean size of lesion,[1]; week 4,33 R.U.
same,Size of lesion (per animal),[1]; week 4,45 R.U. and 8 R.U. and 46 R.U.
same,Incidence of metastasis,[1]; week 4,3/3
same,T/C × 100,[1]; week 6,100
same,Mean size of lesion,[1]; week 6,177 R.U.
same,Size of lesion (per animal),[1]; week 6,307 R.U. and 29 R.U. and 194 R.U.
same,Incidence of metastasis,[1]; week 6,3/3
same,T/C × 100,[1]; week 8,100
same,Mean size of lesion,[1]; week 8,273 R.U.
same,Size of lesion (per animal),[1]; week 8,403 R.U. and 99 R.U. and 318 R.U.
same,Incidence of metastasis,[1]; week 8,3/3
same,T/C × 100,[1]; week 9,100
same,Mean size of lesion,[1]; week 9,379 R.U.
same,Size of lesion (per animal),[1]; week 9,453 R.U. and 278 R.U. and 406 R.U.
same,Incidence of metastasis,[1]; week 9,3/3
same,T/C × 100,[1]; week 10,100
same,Mean size of lesion,[1]; week 10,429 R.U.
same,Size of lesion (per animal),[1]; week 10,512 R.U. and 313 R.U. and 461 R.U.
same,Incidence of metastasis,[1]; week 10,3/3
same,T/C × 100,[1]; week 12,100
same,Mean size of lesion,[1]; week 12,434 R.U.
same,Size of lesion (per animal),[1]; week 12,534 R.U. and 316 R.U. and 453 R.U.
same,Incidence of metastasis,[1]; week 12,3/3
same,bone sialoprotein II expression in relation to untreated control (100%),"[2]; MDA-MB231, single exposure, electroporation",99%
same,bone sialoprotein II expression in relation to untreated control (100%),"[2]; MDA-MB231, single exposure, lipofectamine",100%
same,bone sialoprotein II expression in relation to untreated control (100%),"[2]; MDA-MB231, twofold exposure, lipofectamine",97%
same,bone sialoprotein II expression in relation to untreated control (100%),"[2]; MDA-MB231^F (growing without FBS), single exposure, lipofectamine",100%
same,bone sialoprotein II expression in relation to untreated control (100%),"[2]; MDA-MB435s, single exposure, lipofectamine",65%
same,osteonectin expression in relation to untreated control (100%),[3]; MDA-MB231,94%
same,osteonectin expression in relation to untreated control (100%),[3]; MDA-MB231^F (growing without FBS),80%
same,osteonectin expression in relation to untreated control (100%),[3]; MDA-MB435s,97%
same,T/C × 100,[4]; 4 weeks,78
same,T/C × 100,[4]; 6 weeks,95
same,T/C × 100,[4]; 8 weeks,140
same,X-ray scan of hind legs: osteolytic lesions (in words),"[4]; FIG. 3 and FIG. 4, one rat each, cells pre-exposed","large osteolytic lesions in the femur, tibia and fibula"
same,Incidence of metastasis,[4]; observation period 4 weeks,2/2
same,Mean size of lesion,"[4]; observation period 4 weeks, pretreated cells",173 R.U.
same,Incidence of metastasis,[4]; observation period 6 weeks,2/2
same,Mean size of lesion,"[4]; observation period 6 weeks, pretreated cells",287 R.U.
same,Incidence of metastasis,[4]; observation period 8 weeks,2/2
same,Mean size of lesion,"[4]; observation period 8 weeks, pretreated cells",485 R.U.
same,T/C % (mean lesion size compared to untreated control),"[4]; pretreated cells, after eight weeks",140%
same,average lesion sizes compared to untreated control,"[4]; pretreated cells, after four weeks",about 78%
same,lesion sizes with respect to all animals of the group compared to untreated control,"[4]; pretreated cells, over observation period week 4 to week 8",104%
same,osteopontin expression in relation to untreated control (100%),[5]; single exposure,99.5%
same,osteopontin expression in relation to untreated control (100%),[5]; twofold exposure,99%
same,% Control,[6]; Exp. III a,94%
same,Mean colony no.,"[6]; Exp. III a, control 456",430
same,% Control,"[6]; Experiment II, single treatment",96%
same,Mean colony no.,"[6]; Experiment II, single treatment, control 705",676
same,% Control,[6]; Experiment III b,97%
same,Mean colony no.,"[6]; Experiment III b, control 517",504
